Results reported in patent US20130296392A1, “METHODS FOR THE TREATMENT OF OVERACTIVE BLADDER” (THERAVIDA, INC., priority 2012, published 2013).

Key:
healthy individuals [1] = experiment: Stimulated salivary flow (SSF), change from pre-dose baseline; format: in vivo, human
Procedure: Stimulated salivary flow (SSF) and dry mouth (assessed using a “visual analog scale,” or VAS) were determined at frequent intervals after administration of each treatment. Urine frequency, urine volume/void, and fluid volume consumed were also assessed for each treatment. […] SSF was measured in the following manner. […] The subject may have expectorated saliva in the containers several times if there was excessive saliva. The SSF values were tabulated at each time point and descriptive statistics were generated by treatment, for measured values and changes from pre-dose baseline. Total weight of saliva over time was analyzed using analysis of variance, with Tukey's method of comparison between treatments. Dry mouth was tabulated at each time point and descriptive statistics were generated by treatment, for measured values and changes from pre-dose baseline. Urine frequency, urine volume/void and fluid volume consumed were tabulated and summarized by treatment.

healthy individuals [2] = experiment: Dry mouth assessment by visual analog scale (VAS); format: in vivo, human; details: for Change from Baseline of Dry Mouth Assessment (VAS), Mean: VAS 0=not dry, 10=very dry
Procedure: Stimulated salivary flow (SSF) and dry mouth (assessed using a “visual analog scale,” or VAS) were determined at frequent intervals after administration of each treatment. Urine frequency, urine volume/void, and fluid volume consumed were also assessed for each treatment.
The SSF values were tabulated at each time point and descriptive statistics were generated by treatment, for measured values and changes from pre-dose baseline. Total weight of saliva over time was analyzed using analysis of variance, with Tukey's method of comparison between treatments. Dry mouth was tabulated at each time point and descriptive statistics were generated by treatment, for measured values and changes from pre-dose baseline. Urine frequency, urine volume/void and fluid volume consumed were tabulated and summarized by treatment.
For qualitative assessment of dry mouth, the “visual analog scale,” or VAS, scale (0=not dry, 10=very dry, measured in centimeters) was used. Each subject was asked to mark a vertical line the VAS scale on how dry their mouth was at that moment.
VAS is a well-known method. In this method, subjects were shown a line scaled from 0 to 10 cm. Subjects were asked to rate the subjective criterion from 0-10 cm and make a mark on the line corresponding to their rating. For example, subjects were told that 0 cm on the line means no dry mouth at all and 10 cm on the line means extreme dry mouth. The subjects rated their extent of dry mouth on the line. Changes in the extent of dry mouth of a subject were measured using this technique throughout the treatment period.

| Compound | Mean SSF Change from Pre-dose Baseline (healthy individuals [1]; 1 hour post-dose) | Mean SSF Change from Pre-dose Baseline (healthy individuals [1]; 2 hours post-dose) | Mean SSF Change from Pre-dose Baseline (healthy individuals [1]; 3 hours post-dose) | Mean SSF Change from Pre-dose Baseline (healthy individuals [1]; 4 hours post-dose) | Mean SSF Change from Pre-dose Baseline (healthy individuals [1]; 6 hours post-dose) | Mean SSF Change from Pre-dose Baseline (healthy individuals [1]; 9 hours post-dose) | Mean SSF Change from Pre-dose Baseline (healthy individuals [1]; 12 hours post-dose) | SSF after administration, in words (healthy individuals [1]; compared with placebo and pilocarpine alone (Treatment B)) | Change from Baseline of Dry Mouth Assessment (VAS), Mean (healthy individuals [2]; 1 hour post-dose) | Change from Baseline of Dry Mouth Assessment (VAS), Mean (healthy individuals [2]; 2 hours post-dose) | Change from Baseline of Dry Mouth Assessment (VAS), Mean (healthy individuals [2]; 3 hours post-dose) | Change from Baseline of Dry Mouth Assessment (VAS), Mean (healthy individuals [2]; 4 hours post-dose) | Change from Baseline of Dry Mouth Assessment (VAS), Mean (healthy individuals [2]; 6 hours post-dose) | Change from Baseline of Dry Mouth Assessment (VAS), Mean (healthy individuals [2]; […] post-dose) | Mean VAS scores of dry mouth over time (healthy individuals [2]; 1 hour and 2 hour time points, compared with each of the other treatments) |
| --- | --- | --- | --- | --- | --- | --- | --- | --- | --- | --- | --- | --- | --- | --- | --- |
| Cc1ccc(O)c([C@H](CCN(C(C)C)C(C)C)c2ccccc2)c1 [Treatment A, tolterodine] | -0.3 g | -0.42 g | -0.28 g | 0.05 g | 0.21 g | -0.06 g | 0.27 g | decrease in SSF | 0.03 cm | 0.63 cm | 0.97 cm | 0.56 cm | 0.00 cm | 0.56 cm | – |
| CC[C@@H]1C(=O)OC[C@@H]1Cc1cncn1C [Treatment B, pilocarpine] | 4.55 g | 2.33 g | 1.07 g | 0.64 g | 0.32 g | -0.20 g | -0.08 g | – | −3.00 cm | −2.34 cm | −0.94 cm | −0.69 cm | −0.41 cm | −1.38 cm | markedly lower |
